# Literature values as cited in article PMC3298469, “A selective and potent CXCR3 antagonist SCH 546738 attenuates the development of autoimmune diseases and delays graft rejection” (BMC Immunology, 2012).
# Read-outs that look alike come from different tables or passages of the source.
# Assays:
# [1] = Phase II clinical trials, halted; cited from earlier work
# rat = test system: rat; set-up: method as in ref 21 = [21]; Medina J Presented at the 29th National Medicinal Chemistry Symposium (Madison, Wisconsin), June 27-July 1 2004; details: rat model of CIA; cited from earlier work
# mouse = test system: mouse; set-up: method as in ref 21 = [21]; Medina J Presented at the 29th National Medicinal Chemistry Symposium (Madison, Wisconsin), June 27-July 1 2004; details: mouse model of CIA; cited from earlier work
# EAE = test system: EAE; set-up: method as in PMID 20050195; details: by decreasing migration of inflammatory cells into the CNS; cited from earlier work
# cardiac allograft = details: cited from earlier work
# [2] = set-up: method as in ref 44 = [44]; Medarex Announces Primary Endpoint Achieved in MDX-1100 Anti-IP-10 Antibody Phase 2 Trial for Rheumatoid Arthritis http://www.fiercebiotech.com/press-releases/medarex-announces-primary-endpoint-achiev; details: phase 2 clinical trial for RA; cited from earlier work
molecule,measurement,setting,value
CCOc1ccc(-n2c([C@@H](C)N(Cc3cccnc3)C(=O)Cc3ccc(OC(F)(F)F)cc3)nc3ncccc3c2=O)cc1 [AMG487],clinical outcome,[1],lack of efficacy
same,effect in CIA,rat,reduced inflammation and cartilage damage
same,effect in CIA,mouse,reduced inflammation and cartilage damage
Cc1ccc(-c2ccc3c(c2)C=C(C(=O)Nc2ccc(C[N+](C)(C)C4CCOCC4)cc2)CCC3)cc1.[Cl-] [TAK-779],effect on EAE,EAE,reduce incidence and severity of EAE
same,effect on cardiac allograft vasculopathy,cardiac allograft,attenuates cardiac allograft vasculopathy
MDX-1100: anti-IP-10 antibody,clinical outcome,[2],efficacy
